Molecular target: Sigma 2 receptor
Assay: Binding affinity against sigma 2 opioid receptor using 3[H]-DTG in the presence of dextrallorphan as radioligand

| Ki | SMILES |
| --- | --- |
| 8.1 nM | CN(CCc1ccc(Cl)c(Cl)c1)CCN1CCCC1 |
| > 10000 nM | O=C(Cc1ccc(Cl)c(Cl)c1)OCCN1CCCC1 |

— ChEMBL document CHEMBL1133125, “A sigma-1 receptor selective analogue of BD1008. A potential substitute for (+)-opioids in sigma receptor binding assays” (Bioorg Med Chem Lett, 2000)
